Measured values published in patent US20210221787A1, “NIRAPARIB SOLID STATE FORM” (JOHNSON MATTHEY PUBLIC LIMITED COMPANY, priority 2018, published 2021).
Where two headings read alike, the source gives them in different places.

Legend:
[1] = for extended stability (retention of Form A by XRPD): with and without foil bag
Text: “Stabilized” as used herein relates to an anhydrous form of the p-toluenesulfonic acid salt of niraparib that is capable of retaining its form for up to at least 4 months when held in storage in a sealed container with desiccant, with or without being stored in a foiled bag.
XRPD patterns are obtained using a Bruker D8 Advance equipped with a Cu Ka radiation source (λ=1.54 Å), a 9-position sample holder and a LYNXEYE super speed detector. Samples are placed on air sensitive silicon plate holders with zero-background with domes for analysis. One skilled in the art would recognize that the ° 2 θ values and the relative intensity values are generated by performing a peak search on the measured data and the d-spacing values are calculated by the instrument from the ° 2 θ values using Bragg's equation. One skilled in the art would further recognize that the relative intensity for the measured peaks may vary because of sample preparation, orientation and instrument used, for example.

[2] = cited from earlier work

| SMILES | extended stability ([1]; Form A not made under anhydrous conditions (Examples 1-3), compared with Form A made under anhydrous conditions) | extended stability (retention of Form A by XRPD) ([1]; made under anhydrous conditions (Example 4 or 5), sealed vials with desiccant, ambient, 30° C./65% RH or 40° C./75% RH) | extended stability (retention of Form A by XRPD) ([1]; stored only in sealed vials, without desiccant) | form conversion on DVS ([2]; DVS up to 95% RH) | hygroscopicity (DVS curve) ([2]; DVS) | DVS weight gain ([2]; up to 95% RH) |
| --- | --- | --- | --- | --- | --- | --- |
| Cc1ccc(S(=O)(=O)O)cc1.NC(=O)c1cccc2cn(-c3ccc([C@@H]4CCCNC4)cc3)nc12 [Form A, p-toluenesulfonic acid salt of niraparib] | does not exhibit extended stability | at least 4 months | do not exhibit the extended stability |  |  |  |
| Cc1ccc(S(=O)(=O)O)cc1.NC(=O)c1cccc2cn(-c3ccc([C@@H]4CCCNC4)cc3)nc12 [Form III, p-toluenesulfonic acid salt of niraparib] |  |  |  | converted to the monohydrate | very hygroscopic | approximately 15.8% |
